Source: paper PMC10788915, “Fragment Merging, Growing, and Linking Identify New Trypanothione Reductase Inhibitors for Leishmaniasis” (Journal of Medicinal Chemistry, 2024)
Read-outs that look alike come from different tables or passages of the source.

Assays:
[1] = target: T1, Leishmania infantum TR (LiTR) (Leishmania infantum, UniProt A4HSF7); test: LiTR inhibition kinetics, Ki from Dixon plots; assay type: biochemical; details: for mode of inhibition of LiTR: Dixon plots; for Ki: graphically determined from Dixon plots
T1 construct: The TbTR and LiTR genes were subcloned in a pET28b vector; 6-His (cleaved yes); made in house; host or cells: E. coli BL21(DE3), pET28b
T1 sequence (A4HSF7 1-491): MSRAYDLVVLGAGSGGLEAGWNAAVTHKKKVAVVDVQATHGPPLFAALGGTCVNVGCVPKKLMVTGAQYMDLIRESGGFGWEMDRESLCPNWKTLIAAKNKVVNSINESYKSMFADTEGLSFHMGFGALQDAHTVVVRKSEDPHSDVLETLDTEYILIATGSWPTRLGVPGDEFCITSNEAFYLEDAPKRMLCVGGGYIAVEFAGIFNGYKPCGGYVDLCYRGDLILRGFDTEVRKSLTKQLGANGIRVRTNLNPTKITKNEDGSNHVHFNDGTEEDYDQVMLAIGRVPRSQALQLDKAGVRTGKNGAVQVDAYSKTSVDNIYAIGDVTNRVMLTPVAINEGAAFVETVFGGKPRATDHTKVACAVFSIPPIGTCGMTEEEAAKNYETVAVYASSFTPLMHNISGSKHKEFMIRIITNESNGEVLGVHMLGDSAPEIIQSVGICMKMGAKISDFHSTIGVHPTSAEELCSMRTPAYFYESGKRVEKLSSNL
Method: Enzymatic inhibition assays were performed in 50 mM HEPES pH 7.4, 40 mM NaCl at 25 °C using a JASCO V650 spectrophotometer equipped with a JASCO EHC 716 Peltier element to ensure controlled temperature. The first experiment was carried out using 50 nM LiTR, 10 or 100 μM compound to be tested, 150 μM trypanothione (trypanothione disulfide purchased from Bachem), and 100 μM NADPH (tetrasodium salt, purchased from Calbiochem). The best inhibitor candidates were then tested at concentrations ranging from 1 nM to 250 μM to determine the IC50. Assays were initiated upon addition of 100 μM NADPH to 50 nM LiTR or hGR (human glutathione reductase purchased from Sigma-Aldrich) in the presence of different concentration of compounds and 150 μM trypanothione. For both experiments, the oxidation of NADPH was followed as a decrease in absorbance at 340 nm. For each concentration of compound, the initial velocity of the NADPH oxidation was used to determine the percentage of LiTR activity with respect to that in the absence of any compound. The IC50 was determined upon fitting the residual activity of TR as a dose–response logistic equation defined as ymin + (ymax – ymin)/(1 + (x/IC50)^slope). […] The Ki was determined graphically upon linear fitting of data points for each trypanothione concentration. Data analysis was performed with QtiPlot 0.9.8.9 svn 2288, and graphs were made with Matplotlib. […]
assays were carried out at 25°C on a JASCO V650 spectrophotometer equipped with a JASCO EHC716 Peltier unit. Compound concentrations range from 1 to 6 µM. Briefly, 50 nM LiTR were mixed in 50 mM HEPES pH 7.4, 40 mM NaCl with each compound and various concentrations of trypanothione (reported on the figure). After 3-minute incubation at 25°C, the measurement was initiated upon addition of 100 µM NADPH. The oxidation of NADPH was followed as a decrease in absorbance at 340 nm. The inverse of the initial velocity of LiTR enzymatic reaction was reported as a function of the compound concentration. The intersection of the linear fitting of data at different trypanothione concentration provides a graphical determination of the inhibition constant K i. Each data point is the mean of three measurements.
(1 picture or pasted object on this page, not shown here)

[2] = tested on: L. infantum axenic amastigotes; test: In vitro inhibition of axenic amastigote growth (MTT); assay type: cell-based, Leishmania infantum; details: 72 h, read-out: axenic amastigote EC50 ± SE (95% CI)
Method: Axenic amastigote growth inhibition was evaluated using L. infantum strain (MHOM/TN/80/IPT1, WHO international reference strain). Axenic amastigote cultures were obtained as described previously with modifications.[45] Promastigotes were grown in Schneider’s Drosophila medium (SIGMA) containing 10% heat-inactivated fetal calf serum (FCS)(GIBCO-BRL) and 2% gentamicin (50 mg/L)(Sigma) in 25 cm^2 flasks at 22 °C. After 4–5 days, the parasites were adjusted to 1 × 10^6 parasites/mL in axenic medium MAA/20 consisting of modified medium 199 (Gibco BRL) with Hanks’ salts supplemented with 0.5% tryptic soy broth (Sigma), 0.01 mM bathocuproine disulfonic acid, 3 mM L-cysteine, 15 mM D-glucose, 5 mM L-glutamine, 4 mM NaHCO3, 0.023 mM bovine hemin, and 25 mM HEPES to a final pH of 6.5 and supplemented with 20% pretested FCS, and axenic amastigotes were obtained by shifting the incubation conditions: 198 μL of suspension was seeded in triplicate in 96-well flat bottom microplates and incubated at 37 °C, 5% CO2 for 48 h in order to allow the axenization. The amastigote cells were visualized under the light microscope to confirm transformation. Then, 2 μL of the selected compounds with varying concentrations were added: 100, 50, 25, 12.5, 6.25, 3.12, 1.56, 0.8, 0.4, 0.2, 0.1, 0.05 μM. […] Each experiment was conducted in triplicate for each drug concentration, and three independent experiments were performed. To estimate the 50% inhibitory concentration (IC50), the (3-[4.5-dimethylthiazol-2-yl]-2.5-diphenyltetrazolium bromide) (MTT) micromethod was used throughout the experiments with modification. After 72 h of incubation, 30 μL of MTT was added to each well, and the plates were further incubated for 3 h. The absorbance at 550 nm was measured with a 96-well scanner. Antileishmanial activity was expressed as the percentage of inhibition in the number of live parasites compared to that in the control (nontreated parasites). % inhibition was calculated as follows: % growth inhibition = [(absorb cell with drug × 100)/absorb cell control] – 100. Results were analyzed by GraphPad Prism 5.0, dose–response curves were obtained and IC50 deduced (GraphPad Software Inc., San Diego, USA).

[3] = Cytotoxicity assay on human THP-1-derived macrophages (MTT); assay type: cell-based; details: human, THP-1 cells differentiated into macrophages with PMA, 72 h, MTT; read-out: human THP-1-derived macrophage CC50 ± SE (95% CI)
Method: (§1) To assess the cytotoxicity of compounds on mammalian macrophages, we tested all the compounds against both human leukemia monocyte cell line (THP-1 cells, ATCC) differentiated into macrophages by treatment with 40 ng/mL of phorbol myristate acetate (PMA; Sigma) for 48 h and peritoneal exudate macrophages harvested from Balb/c mice. […] Cell viability was evaluated using the MTT assay, and the concentration of the compound that produced a 50% reduction of cell viability in treated culture cells with respect to untreated ones (CC50) was determined by GraphPad Prism 5.0 (GraphPad Software Inc., San Diego, USA). […] The selectivity index for each compound was calculated as the ratio of cytotoxicity (CC50) in macrophages cells to activity (IC50) against Leishmania axenic amastigotes. The experiments were performed in triplicate, and two independent experiments were conducted.

[4] = tested on: human THP-1-derived macrophages; test: as above; assay type: cell-based
Method: as §1

Compound	mode of inhibition of LiTR [1]	Ki [1] [µM]	EC50 [2] [µM]	EC50 ([2]; Leishmania infantum) [µM]	CC50 at 72 h [3] [µM]	SI = human THP-1-derived macrophage CC50/axenic amastigote EC50 [4]
C[N+]1(CCCc2ccccc2)CCN(C(=O)N(Cc2ccc(C(=O)NCCc3ccc(F)cc3)o2)c2ccc(F)cc2)CC1.[I-] [Compound 9, 4-(((5-((4-Fluorophenethyl)carbamoyl)furan-2-yl)methyl)(4-fluorophenyl)carbamoyl)-1-methyl-1-(3-phenylpropyl)piperazin-1-ium Iodide]	linear competitive inhibition	5.5 ± 0.2	10.4 ± 1.1	10.4	38.4 ± 11	3.7
O=C(NCCc1ccc(F)cc1)c1ccc(CN(C(=O)N2CC[N+](CCCc3ccccc3)(Cc3ccc(Cl)c(Cl)c3)CC2)c2ccc(F)cc2)o1.[I-] [Compound 10, 1-(3,4-Dichlorobenzyl)-4-(((5-((4-fluorophenethyl)carbamoyl)furan-2-yl)methyl)(4-fluorophenyl)carbamoyl)-1-(3-phenylpropyl)piperazin-1-ium Iodide]	linear competitive inhibition	0.2		11 ± 1.9	16 ± 2.4	1.4
O=C(NCCc1ccc(F)cc1)c1ccc(CNC(=O)N2CC[N+](CCCc3ccccc3)(Cc3ccc(Cl)c(Cl)c3)CC2)o1.[I-] [Compound 14, 1-(3,4-Dichlorobenzyl)-4-(((5-((4-fluorophenethyl)carbamoyl)furan-2-yl)methyl)carbamoyl)-1-(3-phenylpropyl)piperazin-1-ium Iodide]	linear competitive inhibition	0.8 ± 0.2		8.98 ± 0.4	20.5 ± 3.6	2.3
